The structures appear in SMILES notation.

Series [1] deals with differentiated 3T3L1 adipocytes. Kind of series: Necrosis and apoptosis of differentiated 3T3L1 adipocytes (trypan blue, LDH, flow cytometry). The series is classed as cell-based, mouse. As to conditions: 50 μM. As for the experimental part:
3T3L1 mouse fibroblast cells (ATCC, CL-173™) were maintained according to the manufacture's protocol, in Dulbecco's modified eagle's medium (DMEM) containing 10% Fetal Bovine Serum and antibiotics (M1 medium). Adipocyte differentiation was performed according to standard procedures (42). Briefly, the 3T3L1 fibroblasts were seeded at 30% confluence and allowed to grow to near 100% confluence. On the day after reaching maximum confluence, conversion was induced by replacing the M1 medium with M1 medium containing insulin (5 μg/ml), dexamethasone (0.25 μM), and 3-isobutyl-1-methyl-xanthine (0.5 mM). After 2 days, the cells were changed to M1 medium with insulin (5 μg/ml) for an additional 2 days. Thereafter, the cells were maintained in M1 medium without additives for 2 days.
(§1) 50 μM of stearate, oleate or linoleate was used to treat 3T3L1 cells as this concentration is centered within the normal range for non-esterified stearate in the plasma of humans. Stearate, oleate, or linoleate was loaded onto fatty acid free BSA according to the method reported by Spector and Hoak (Spector and Hoak, 1969). Briefly, stearate (0.5 g) was dissolved in chloroform (100 mL) and mixed well with 10 g diatomaceous earth in a 1 liter flask. The mixture was stirred and dried under nitrogen until powder. Fatty acid free BSA (1 g) was dissolved in 100 mL with DMEM without phenol red and mixed with 3 g of the stearate/diatomaceous earth mixture and stirred for 30 minutes. The stearate/BSA solution was filtered through a 0.45 μm filter, and adjusted to pH 7.4. The concentration of stearate in the solution was detected by use of a NEFA C kit. Oleic and linoleate were loaded in the same way. […] Before the treatment with fatty acid, 3T3L1 preadipocytes were grown to 100%, and were starved in 2% FBS medium for 24 hours.
(§2) After treatment, 3T3L1 cells were harvested, washed with cold PBS, and then resuspended in 100 μl annexin-binding buffer (50 mM HEPES, 700 mM NaCl, 12.5 mM CaCl2, pH 7.4). Cell density was determined, and the cells were diluted to 10^6 cells. Then 5μL of Alex Fluo 488 annexin V and 1 μL propidium iodide (PI) were added. Cells were gently oscillated and incubated for 15 min at room temperature. After adding 400 μL of binding buffer to each tube, cells were kept on ice and analyzed by flow cytometry within 1 hour. Cells that stained positive for Alex Fluo 488 annexin V and negative for PI were considered to be apoptotic. Cells that stained positive for both Alex Fluo 488 annexin V and PI were considered either in the end stage of apoptosis, or necrosis. Cells that stained negative for both Alex Fluo 488 annexin V and PI were considered alive and not undergoing measurable apoptosis. A BD LSR II flow cytometer from Becton Dickinson was used in all flow experiments and the data were analyzed with BD FACSDiva™ software V.6.1.3.
(§3) Lactate dehydrogenase (LDH) release was measured using a cytotoxicity detection kit, according to the manufacture's protocol. After 3T3L1 cells were treated, 1 ml of cell culture medium was removed and centrifuged. The supernatant was retained for assaying. For determinations, 100 μl of LDH assay reagent was added to 100 μl of supernatant and incubated for 30 min at room temperature in the dark. Absorbance was measured at 490 nm. Background release from culture medium alone was subtracted before reporting. Maximum release was measured after adding 2% Triton X-100 to untreated cells.
(§4) After treatment, 3T3L1 cells were harvested and stained with 0.4% trypan blue solution. Cells in the four corners of the grid were counted under a conventional bright field binocular microscope.

The subject of another series is 3T3L1 preadipocytes. Kind of series: Cell death and apoptosis of 3T3L1 preadipocytes (trypan blue, LDH, flow cytometry). It is filed as cell-based, mouse. As to conditions: 50 μM, vs control; for Percentage of dead cells (trypan blue): 48 hour treatment; for Dead cells (flow cytometry): 48 hours; for Cytotoxicity (lactate dehydrogenase): after 24 hours. On the procedure: as §1, §2, §3, §4
On the technique in general: A flow cytometer gives signals particle by particle.

Series [2] concerns p21^CIP1/WAF1, p27^KIP1, pCdk2. Description: Immunoblot of p21CIP1/WAF1, p27KIP1 and phosphorylated Cdk2 in Hs578T cells. It is filed as cell-based, human. On the procedure: (§5) The concentration of stearate used to treat the Hs578T cells was 50 μM. When EGF was used, the concentration was 1 nM EGF. Before the treatment with stearate or EGF, cells were first starved for 24-48 hours. Stearate was loaded onto fatty acid-free bovine serum albumin (BSA) according to the method reported by Spector et al. (13); briefly, stearate (0.5 g) was dissolved in chloroform (100 ml) and mixed well with 10 g diatomaceous earth in a 1 liter flask. The mixture was stirred and dried under nitrogen until powder. BSA is a physiological carrier of fatty acids and was used to avoid the introduction of organic solvents to solutions coming into contact with cells. Fatty acid-free BSA (1 g) was dissolved in 100 ml with Dulbecco's modified Eagle's medium without phenol red and mixed with 3 g of the stearate/diatomaceous earth mixture with stirring for 45 min. The stearate/BSA solution was filtered through a 0.45 μm filter, and adjusted to pH 7.4. The concentration of stearate in the solution was detected with the NEFA C Kit from Wako Chemicals GmbH (Neuss, Germany). All experimental data on Hs578T cells were controlled using fatty acid-free BSA control solutions that were put through the same preparatory procedure described for the stearate/BSA solution except for the fact that no fatty acid was added.
Cells were treated as described above, and lysed with lysis buffer. The supernatants of the lysates or the immunoprecipitates were loaded with Laemmli sample buffer on 10% sodium dodecyl sulfate-polyacrylamide gel electrophoresis gels after boiling at 100° C. for 5 min. Proteins were then transferred to a polyvinylidene difluoride membrane. The membranes were blocked overnight at 4° C. with blocking buffer containing 5% non-fat dried milk powder in Tris-buffered saline-T (25 mM Tris, 140 mM NaCl, 2.7 mM KCl, 0.05% Tween-20, pH 8.0), incubated with primary antibody in blocking buffer at room temperature for 1 hour and incubated with antirabbit or antimouse antibodies labeled with horseradish peroxidase (1:5000) in blocking buffer under the same conditions, and then washed three times for 10 min in Tris-buffered saline-T. The polyvinylidene difluoride membranes were washed and developed using enhanced chemiluminescence reagents.
A general note: In western blotting, separated proteins are transferred to a membrane and probed.

The subject of the next series is ERK. Description: Immunoblot of phosphorylated ERK in Hs578T cells. It is filed as cell-based, human. The conditions noted are these: PD98059 added to Hs578T cells. On the procedure: as §5
Cells were treated as described above, and lysed with lysis buffer. […]

The subject of series [3] is visceral adipocytes from ApoE knockout mice. Kind of series: Expression of cIAP2, Bcl-2 and Bax in visceral adipocyte cultures. It is filed as cell-based. The conditions noted are these: 50 μM fatty acid; vs no additional fatty acid. On the procedure: It was hypothesized that stearate induces apoptosis in visceral adipocytes by at least one of the following mechanisms: inhibition of cIAP2, activation of Bcl-2, and activation of BAX. […] Six cultures were exposed to each fatty acid or no fatty acid. The expression of cIAP2, Bcl-2, and Bax was measured in each culture. […] By decreasing levels of the cIAP2 and/or Bcl-2 polypeptides and increasing expression of the Bax polypeptide, stearate administration may lead to an increase in cellular apoptotic activity (such as but not limited to the visceral fat tissues). Without wishing to be bound by any given hypothetical model, it is proposed that this reduction in cIAP2 expression and this increase in Bax expression (independently or in combination) is responsible for the relative decrease in visceral fat tissue that is observed when animals are given a diet that is high in stearate.

The mark [4] stands for this setting: PD98059 in stearate-treated cells.

For `CCCCCCCC/C=C\CCCCCCCC(=O)O` [oleate, oleic acid], in series [1], the “Cytotoxicity (lactate dehydrogenase in medium)” value is “no significant changes”, the “Percentage of apoptotic cells (flow cytometry)” value is “no significant changes”, the “Percentage of dead cells (flow cytometry)” value is on record as “no significant changes” and the “Percentage of dead cells (trypan blue)” value is given as “no significant changes”. In addition, in the series on 3T3L1 preadipocytes, the “Percentage of dead cells (trypan blue)” value is on record as “no significant changes”, the “Dead cells (flow cytometry)” value is given as “significantly decreased”, the “Cytotoxicity (lactate dehydrogenase)” value is recorded as “significantly decreased” and the “Apoptotic cells (flow cytometry)” value was “decreased”.

On to `COc1cccc(-c2cc(=O)c3ccccc3o2)c1N` [PD98059, 2′-amino-3′-methoxyflavone, reference compound], for which the “Stearate-induced upregulation of p21^CIP1/WAF1” value in series [2] (PD98059 added following stearate and EGF treatment) is on record as “reverses”. In addition, in series [2] (setting [4]), the “Stearate-induced decrease in pCdk2” value is “only partially reversed” and the “Stearate-induced increases in p27^KIP1” value was “did not reverse”. Also, in the series with ERK, the “ERK phosphorylation induced by stearate and EGF” value is listed as “blocked”.

As for `CCCCC/C=C\C/C=C\CCCCCCCC(=O)O` [linoleate, linoleic acid], in series [1], the “Cytotoxicity (lactate dehydrogenase in medium)” value is “no significant changes”, the “Percentage of apoptotic cells (flow cytometry)” value is given as “no significant changes”, the “Percentage of dead cells (flow cytometry)” value is reported as “no significant changes” and the “Percentage of dead cells (trypan blue)” value was “no significant changes”. Besides, in series [3], the “Expression of Bax” value is reported as “increased the expression of Bax to a lesser extent” and the “Expression of cIAP2” value is on record as “no statistically significant effect”. Also, in the series with 3T3L1 preadipocytes, the “Percentage of dead cells (trypan blue)” value is recorded as “no significant changes”, the “Dead cells (flow cytometry)” value is reported as “no significant effects”, the “Cytotoxicity (lactate dehydrogenase)” value is listed as “did not change significantly” and the “Apoptotic cells (flow cytometry)” value is reported as “No significant changes”.
